The nature of data set [1]: Drug metabolism in mouse liver microsomes after 20 mins. Type of data set: ADME, Microsome. To be noted: read-out: Drug metabolism. (Microsomes from liver hold many membrane-bound enzymes, among them those of drug oxidation.)
Data set [2] has as its target 11-beta-hydroxysteroid dehydrogenase 1 (Mus musculus, UniProt P50172). The data set can be described thus: Inhibition of mouse 11beta-HSD1.
Data set [3] is described as follows: Drug metabolism in human liver microsomes after 20 mins. The format is ADME, Microsome. As to conditions: read-out: Drug metabolism.
Data set [4] is described as follows: Chemical stability of the compound under neutral condition. Type of data set: physicochemical.
Data set [5] is described as follows: Metabolic stability in plasma (unknown origin) assessed as compound degradation. The format is ADME, cell-free.
A short description of data set [6]: Chemical stability of the compound under acidic condition. The format is physicochemical.
For data set [7], the target named is 11-beta-hydroxysteroid dehydrogenase 1 (Rattus norvegicus, UniProt P16232). The data set can be described thus: Inhibition of rat 11beta-HSD1.
Chain of 11-beta-hydroxysteroid dehydrogenase 1 (Rattus norvegicus, UniProt P16232) (P16232 whole entry): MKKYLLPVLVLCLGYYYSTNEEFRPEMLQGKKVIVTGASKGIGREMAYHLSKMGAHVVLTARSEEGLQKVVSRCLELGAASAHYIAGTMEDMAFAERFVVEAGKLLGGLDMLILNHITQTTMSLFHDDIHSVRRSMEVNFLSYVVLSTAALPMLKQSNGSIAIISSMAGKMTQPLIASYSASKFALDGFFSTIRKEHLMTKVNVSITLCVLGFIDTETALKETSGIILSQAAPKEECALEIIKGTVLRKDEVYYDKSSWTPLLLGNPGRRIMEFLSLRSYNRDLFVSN
Data set [8] concerns the target 11-beta-hydroxysteroid dehydrogenase 1 (Homo sapiens, UniProt P28845). The data set can be described thus: Inhibition of human 11beta-HSD1.

Chain of 11-beta-hydroxysteroid dehydrogenase 1 (Homo sapiens, UniProt P28845) (P28845 whole entry): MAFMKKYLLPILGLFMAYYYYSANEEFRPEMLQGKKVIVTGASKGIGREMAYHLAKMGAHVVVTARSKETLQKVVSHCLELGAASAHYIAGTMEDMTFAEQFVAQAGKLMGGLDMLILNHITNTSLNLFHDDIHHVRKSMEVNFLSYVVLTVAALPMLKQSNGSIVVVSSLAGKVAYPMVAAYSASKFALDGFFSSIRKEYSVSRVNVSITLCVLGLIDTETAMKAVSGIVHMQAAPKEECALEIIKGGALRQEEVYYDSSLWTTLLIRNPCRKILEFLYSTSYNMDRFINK
Chain of 11-beta-hydroxysteroid dehydrogenase 1 (Mus musculus, UniProt P50172) (P50172 whole entry): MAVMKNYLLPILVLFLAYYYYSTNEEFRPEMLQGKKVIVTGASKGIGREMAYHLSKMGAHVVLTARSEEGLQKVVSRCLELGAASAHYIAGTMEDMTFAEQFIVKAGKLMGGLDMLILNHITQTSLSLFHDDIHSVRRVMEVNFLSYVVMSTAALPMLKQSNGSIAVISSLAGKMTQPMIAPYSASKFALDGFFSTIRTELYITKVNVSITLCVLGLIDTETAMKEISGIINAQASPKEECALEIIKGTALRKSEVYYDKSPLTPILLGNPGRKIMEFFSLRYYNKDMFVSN

With `O=S1(=O)N=C(N[C@@H](CCCO)c2ccccc2)O[C@H]2CCCC[C@H]21`, the values for the metabolised at 20 min in data set [1] and in data set [3] were 78% and 89%, respectively. In data set [2], this molecule registered a concentration for half-maximal inhibition (IC50) of 294 nM. The like results for `CC1(C)OC(NC2CCCCC2)=NS(=O)(=O)C1(C)C` were, in that order, 9%, 5% and 865 nM.

In turn, `CC1(C)OC(NC2CCCCC2)=NS(=O)(=O)C12CC2` came in with an IC50 in data set [2] of 1620 nM. Turning to `O=S1(=O)N=C(NC2CCCCC2)OC2(CCC2)C12CC2`, the IC50 in data set [2] amounted to 813 nM. The same measure, in the same setting: for `CCC1OC(NC2CCCCC2)=NS(=O)(=O)C12CC2` (centres undefined) the value was 2510 nM. On the same count and under the same terms, for `C[C@H](NC1=NS(=O)(=O)C(C)(C)C(C)(C)O1)c1ccccc1` the value was 286 nM; for `C[C@H](NC1=NS(=O)(=O)C(C)(C)C(C)(C)O1)c1ccccc1Cl`, 29 nM. In the case of `CC1(C)OC(N[C@@H](CCO)c2ccccc2)=NS(=O)(=O)C1(C)C`, the metabolised at 20 min in data set [1] was 11%; in data set [3], 4%. The same molecule came in with an IC50 in data set [2] of 232 nM. For the molecule `CC1(C)OC(N[C@@H](CCO)c2ccccc2Cl)=NS(=O)(=O)C1(C)C`, the metabolised at 20 min in data set [1] is 52%; in data set [3], 25%. The same molecule gave a half-maximal inhibitory concentration (IC50) in data set [2] of 26 nM. Regarding `CC1(C)OC(N[C@@H](CCO)c2cccc(C#N)c2)=NS(=O)(=O)C1(C)C`, in data set [2], it took 110 nM to reach half-maximal inhibition (IC50). On to `CC1(C)OC(N[C@@H](CCO)c2ccc(F)cc2)=NS(=O)(=O)C1(C)C`, for which the figures for the metabolised at 20 min in data set [1] and in data set [3] were 9% and 2%, respectively. In data set [2], this molecule registered an IC50 of 199 nM. In data set [2], `CC(C)(O)C[C@H](NC1=NS(=O)(=O)C(C)(C)C(C)(C)O1)c1ccccc1Cl` came in with a concentration for half-maximal inhibition (IC50) of 452 nM.

Consider `O=S1(=O)N=C(NC2CCCCC2)O[C@H]2CCCC[C@H]21`, for which the Stability result in data set [4], in data set [5] and in data set [6] was “Stable” throughout. Further, in data set [7], the midpoint of inhibition, the IC50, lay at 246 nM. The molecule `O=S1(=O)NC(=NC2CCCCC2)O[C@@H]2CCCC[C@H]21` yielded a half-maximal inhibitory concentration (IC50) in data set [7] of 1140 nM. In data set [2], `O=S1(=O)NC(=NCc2ccccc2)O[C@H]2CCCC[C@H]21` showed an IC50 of 786 nM. `O=S1(=O)NC(=NC23CCC(CC2)CC3)O[C@H]2CCCC[C@H]21`: the results for the metabolised at 20 min in data set [1] and in data set [3] were 87% and 94%, respectively. The molecule also returned a half-maximal inhibitory concentration (IC50) in data set [2] of 275 nM.

For `O=S1(=O)NC(=NC23CC4CC(CC(C4)C2)C3)O[C@H]2CCCC[C@H]21`, the metabolised at 20 min stood at 98% in data set [1] and 91% in data set [3]. In data set [2], this molecule had an IC50 of 40 nM. The like results for `O=S1(=O)NC(=NC23CC4CC(CC2C4)C3)O[C@H]2CCCC[C@H]21` (mixture of isomers) were, in that order, 65%, 83% and 9 nM. For `CC(C)(NC1=NS(=O)(=O)[C@@H]2CCCC[C@@H]2O1)c1ccccc1` (mixture of isomers), the IC50 in data set [2] is 444 nM. The same measure, in the same setting: for `O=S1(=O)NC(=N[C@@H](CO)c2ccccc2)O[C@H]2CCCC[C@H]21` (mixture of isomers) the value was 152 nM. On to `O=S1(=O)N=C(N[C@@H](CCO)c2ccccc2)O[C@H]2CCCC[C@H]21` (mixture of isomers), for which the figures for the metabolised at 20 min in data set [1] and in data set [3] were 41% and 77%, respectively. For the same molecule, half-maximal inhibition in data set [2] (IC50) required 16 nM. As for `NC(=O)C[C@H](NC1=NS(=O)(=O)[C@@H]2CCCC[C@@H]2O1)c1ccccc1` (mixture of isomers), the metabolised at 20 min in data set [1] was found to be 35%; in data set [3], 47%. `O=S1(=O)N=C(NC23CCCC2CCC3)O[C@H]2CCCC[C@H]21` (mixture of isomers) had an IC50 in data set [2] of 47 nM. Still for that read-out and setting: the figure for `O=S1(=O)N=C(NC23CCC(F)(CC2)CC3)O[C@H]2CCCC[C@H]21` (mixture of isomers) is 454 nM. In the case of `O=S1(=O)N=C(NC23CCC(O)(CC2)CC3)O[C@H]2CCCC[C@H]21` (mixture of isomers), the metabolised at 20 min in data set [1] was 20%; in data set [3] it was 12%. Moreover, 695 nM corresponded to half-maximal inhibition in data set [2] (IC50). Consider `O=S1(=O)NC(=NC23CC4CC(CC(O)(C4)C2)C3)O[C@H]2CCCC[C@H]21` (mixture of isomers), for which 400 nM corresponded to half-maximal inhibition in data set [2] (IC50). Take `O=S1(=O)NC(=NCC23CC4CC(CC(C4)C2)C3)O[C@H]2CCCC[C@H]21` (mixture of isomers): in data set [2], the midpoint of inhibition, the IC50, lay at 76 nM.

Regarding `O=S1(=O)N=C(NC2CCCCC2)O[C@H]2CCCC[C@H]21` (racemic), the figures for the metabolised at 20 min in data set [1] and in data set [3] were 19% and 18%, respectively.

In the case of `O=S1(=O)N=C(NC2CCCCC2)O[C@H]2CCNC[C@H]21` (racemic), the half-maximal inhibitory concentration (IC50) in data set [8] is > 2250 nM.

Take `O=S1(=O)NC(=NC2CCCCC2)O[C@@H]2CCNC[C@H]21` (racemic): the IC50 in data set [8] is > 2250 nM. Same read-out and setting: for `CN1CC[C@@H]2OC(=NC3CCCCC3)NS(=O)(=O)[C@@H]2C1` (racemic) the value was > 2250 nM. Turning to `O=S1(=O)N=C(NC2CCCCCC2)O[C@H]2CCCC[C@H]21` (racemic), the metabolised at 20 min in data set [1] turned out to be 54%; in data set [3], 45%. In data set [2], half-maximal inhibition (IC50) was put at 87 nM. The like results for `O=S1(=O)N=C(NC2CCCCCCC2)O[C@H]2CCCC[C@H]21` (racemic) were, in that order, 84%, 79% and 31 nM. Consider `CC1(C)CCC(N=C2NS(=O)(=O)[C@@H]3CCCC[C@@H]3O2)CC1` (racemic), for which the metabolised at 20 min in data set [1] and in data set [3] was 55% each time. For the same molecule, half-maximal inhibition in data set [2] (IC50) was put at 455 nM.

`CC1(C)CC(NC2=NS(=O)(=O)[C@@H]3CCCC[C@@H]3O2)CC(C)(C)C1` (racemic): the metabolised at 20 min in data set [1] amounted to 97%; in data set [3], 93%. In data set [2], this molecule registered a 50% inhibitory concentration (IC50) of 57 nM.

In turn, `O=S1(=O)NC(=NCC2CCCCC2)O[C@H]2CCCC[C@H]21` (racemic) showed an IC50 in data set [2] of 729 nM.

For orientation: IC50 means the concentration that inhibits the measured activity by half. Low values mean greater potency, high ones weaker potency.

Source of the values: ChEMBL document CHEMBL2407060, “1,1-Dioxo-5,6-dihydro-[4,1,2]oxathiazines, a novel class of 11ß-HSD1 inhibitors for the treatment of diabetes” (Bioorg Med Chem Lett, 2013).
